Laboratory results reported in paper PMC5850989 (Toxicology letters, 2016).

Experiments:
CaCo-2 cells = conditions: average for Enn A, A1, B and B1, ref Meca et al., 2012; cited from earlier work
[1] = ref Manyes et al., 2014, cited from earlier work
[2] = assay type: in vivo, CB-17 scid/scid mice; conditions: KB-3-1 xenograft
[3] = Evaluation of toxicological effects: body weight, behavior, histology; assay type: in vivo, SCID mice; conditions: 5 mg/kg i.p., short-term and 9-day schedules
[4] = assay type: in vivo, SCID mice; conditions: 5 mg/kg i.p.
[5] = 5 mg/kg b.w. i.p. daily, 9 days, mean ± SD (n = 4)

## CC[C@H](C)[C@H]1C(=O)O[C@H](C(C)C)C(=O)N(C)[C@@H]([C@@H](C)CC)C(=O)O[C@H](C(C)C)C(=O)N(C)[C@@H](C(C)C)C(=O)O[C@H](C(C)C)C(=O)N1C [Enn A1]
CaCo-2 cells
  Apparent mean bioavailability: 80%

## CC[C@H](C)[C@H]1C(=O)O[C@H](C(C)C)C(=O)N(C)[C@@H]([C@@H](C)CC)C(=O)O[C@H](C(C)C)C(=O)N(C)[C@@H]([C@@H](C)CC)C(=O)O[C@H](C(C)C)C(=O)N1C [Enn A]
[1]; Enn A-fed Wistar rats
  Detection in kidneys: no Enn A was detected in kidneys
[1]; repeated dose 20.91 mg Enn A/kg b.w./day, 28 days, feed
  Adverse effects (histological analyses, biochemical blood parameters): no adverse effects
CaCo-2 cells
  Apparent mean bioavailability: 80%

## CC(C)[C@H]1C(=O)O[C@H](C(C)C)C(=O)N(C)[C@@H](C(C)C)C(=O)O[C@H](C(C)C)C(=O)N(C)[C@@H](C(C)C)C(=O)O[C@H](C(C)C)C(=O)N1C [Enn B, Enniatin B]
[2]; [5]
  Concentration in serum: 5.4 ± 0.2 µg/kg
  Concentration in tumor: 2.8 ± 0.8 µg/kg
[2]; 9-day treatment, 5 mg/kg i.p.
  Degradation products (metabolites) in tumor tissues: no degradation products could be found
CaCo-2 cells
  Apparent mean bioavailability: 80%
[3]
  Apparent signs of toxicity (food and fluid consumption, fatigue, body weight alterations): None of the treatment schedules showed apparent signs of toxicity
[4]; 2-days Enn B-treated SCID mice
  Concentration in liver, quantified with Enn B calibration curve: 2.9 ± 0.6 µg/kg
[4]; short-term treatment
  Metabolites in serum, brain, muscle and kidney: no metabolites were found

## CC(C)C1NC(=O)C(C(C)C)OC(=O)C(C(C)C)N(C)C(=O)C(C(C)C)OC(=O)C(C(C)C)N(C)C(=O)C(C(C)C)OC1=O (stereo not shown) [Mono-demethylated-Enn B]
[4]; 2-days Enn B-treated SCID mice
  Concentration in colon, quantified with Enn B calibration curve: 0.6 ± 0.09 µg/kg
  Concentration in liver, quantified with Enn B calibration curve: 0.7 ± 0.1 µg/kg
